Test results from paper PMC11671014 (PLOS Pathogens, 2024).
Read-outs that look alike come from different tables or passages of the source.

What was measured:
[1] = tested on: P. falciparum (3D7, ring stage) cultures; experiment: P. falciparum 3D7 72-h growth inhibition, lactate dehydrogenase (PfLDH) assay; format: cell-based; conditions: Plasmodium falciparum, 72 h exposure
Method: Routine analyses of antimalarial activity against P. falciparum 3D7 was tested by TCGLS (Kolkata, India) using the lactate dehydrogenase (PfLDH) growth inhibition assay as previously described. […] P. falciparum strain (3D7) was obtained from BEI Resources.

HepG2 cells = experiment: HepG2 72-h viability, CellTiter-Glo; format: cell-based; conditions: Homo sapiens, 72 h exposure
Method: The HepG2 (Human hepatocyte carcinoma) cell line was procured from ATCC (American Type Culture Collection, Manassas, USA; HB-8065) and viability assessed using CellTiter-Glo luminescent cell viability assay reagents (Promega). For the assay, 2,000 cells/well were plated in 384-well plates 24 h prior to the experiment and incubated at 37°C in a CO2 incubator. The medium was removed; and cells were treated with fresh medium containing either vehicle (0.5% DMSO) or serially diluted compounds or doxorubicin (1.3 nM to 25 μM) in a final volume of 50 μL/well and further incubated for 72 h at 37°C in a CO2 incubator. […] Following incubation, 25 μL of medium was discarded and 25 μl of CellTiter-Glo reagent was added to each well and the plate was kept on a plate shaker for 15 min at 25°C with shaking at 300 rpm. Luminescence signals were measured in a PHERAstar FSX reader (BMG LABTECH).

PfTyrRS [2] = molecular target: T1, PfTyrRS (Plasmodium falciparum, UniProt Q8IAR7); experiment: ATP consumption by PfTyrRS (Kinase Glo); format: biochemical; conditions: PfTyrRS 25 nM, ATP 10 μM, tyrosine 200 μM, cognate tRNA^Tyr 4.8 μM, 37°C 1 h; read-out: Inhibition of PfTyrRS (Kinase Glo) IC50
Method: Consumption of ATP was measured using a luciferase-based assay as per the manufacturer’s instructions (Kinase-Glo Luminescent Kinase Assay, Promega).

PfTyrRS [3] = molecular target: T1, PfTyrRS; experiment: Differential scanning fluorimetry (DSF) of PfTyrRS; format: binding; conditions: for ΔTm at 50 µM: 50 μM sulfamate, tyrosine, PftRNA^Tyr, 37°C 2 h, read-out: PfTyrRS binding (DSF) Delta Tm; for ΔTm at 50 µM / PfTyrRS Tm: ATP; for Kd: estimated from DSF with an irreversible thermal unfolding model, read-out: PfTyrRS binding (DSF) apparent KD; for PfTyrRS Tm: with sulfamate, tyrosine and tRNA, apo 49.9 ± 0.6
Method: The effect on ML471 and analogues on the thermal stability of TyrRS enzymes was assayed as previously described. […] SYPRO Orange (Sigma-Aldrich; 5,000X concentrate in DMSO) was added to the reaction mixture at a final concentration of 5X. 25 μL of the sample was added into each well of a 96-well qPCR plate (Applied Biosystems). The plate was sealed and analysed using StepOnePlus Real-Time PCR system (Applied Biosystems). The samples were heated from 20°C to 90°C with a 1% continuous gradient. The thermal unfolding curve was plotted as the first derivative curve of the raw fluorescence values. The melting temperature (Tm), defined as the peak of the first derivative curve, was used to assess the thermal stability of protein-ligand complexes.

[4] = tested on: Pf3D7-pfs16-CBG99 gametocytes, immature (stage II/III) and mature (stage V); experiment: Gametocyte killing assay (luciferase); format: cell-based; conditions: Plasmodium falciparum, 48 h
Method: Gametocytogenesis was induced on a tightly synchronised (>97% rings) asexual parasite culture (Pf3D7-pfs16-CBG99 (kind gift from Pietro Alano), 0.5% parasitemia and 6% hematocrit) with a combination of nutrient starvation and a decrease in hematocrit, as previously described. For immature gametocytes (>90% stage II/III), cultures were exposed to 50 mM N-acetyl glucosamine (NAG) on days 1–4 to eliminate residual asexual parasites and harvested at days 5–6. For mature (>95% stage V) gametocytes, NAG treatment occurred from days 3–7 and harvest at day 13. Stage II/III and V gametocyte cultures (2 % gametocytaemia 1.5 % haematocrit, 150 μL/well) were exposed to compounds and incubated at 37°C for 48 h under hypoxic conditions, after which luciferase activity was determined with a non-lysing D-luciferin substrate (1mM in 0.1M citrate buffer, pH 5.5, 100 μL) and bioluminescence was detected with a 2 s integration time with a GloMax-Multi Detection System with Instinct software.

[5] = tested on: P. falciparum liver stage schizont (NF135); experiment: Liver stage schizont assay in primary human hepatocytes (NF135); format: cell-based; conditions: Plasmodium falciparum, Hepatocyte, 96 h, four days
Method: (§1) Activity against liver stage parasites was performed using a modification of published procedures. Briefly, cryopreserved human primary hepatocytes (NF175: H1500.H15B+ Lot No. HC0-6, TebuBio or NF135: F00995-P Lot No. IRZ, BioIVT) were thawed and seeded at 18,000 cells per well in collagen-coated 384-well microtiter plates in medium containing 10% heat inactivated fetal bovine serum (hiFBS). Cells were cultured at 37°C in 5% CO2. For NF175, medium was replaced by fresh medium containing 10% hiFBS, 5 h post plating. For NF135, medium was replaced by medium containing 0.2% BSA, 24 h post plating. 48 h post plating, salivary glands from Plasmodium-NF175 or NF135-infected Anopheles stephensi mosquitoes were dissected, added to the hepatocytes (10,000 per well/ NF175; or 12,500 per well/ NF135) and allowed to infect for 3 hours. Sporozoites were then aspirated, and compounds diluted in medium containing 10% hiFBS or 0.2% BSA, were added to the hepatocytes. Medium containing 10% hiFBS or 0.2% BSA and compounds was refreshed daily for four days. Hepatocytes were fixed with ice-cold methanol and samples were blocked with 10% hiFBS in PBS. Schizonts were stained with rabbit anti-HSP70 in 10% hiFBS for 1–2 h followed by incubation with a mixture of secondary goat anti-rabbit AlexaFluor 594 antibody and 4′,6-diamidine-2′-phenylindole dihydrochloride (DAPI) in 10% hiFBS for 30 min. Samples were washed with PBS containing 0.05% Tween 20 between different steps. Cells were imaged on a PicoExpress high content imager, and images were analysed automatically using CellReporterXpress software. Data were analysed by logistic regression using a four-parameter (Hill equation) model and a least-squares method to find the best fit.

Primary hepatocytes = experiment: Toxicity to primary hepatocyte host cells in the liver stage assay; format: cell-based, human; conditions: Homo sapiens, Hepatocyte, host cells of the NF135 experiment
Method: as §1

[6] = tested on: P. falciparum (strain 3D7A); experiment: Parasite Reduction Rate (PRR) estimation; format: cell-based, Plasmodium falciparum; conditions: 10 x IC50
Method: PRR was assessed using a standardized method. P. falciparum (strain 3D7A, MRA-151), contributed by David Walliker, was obtained through BEI Resources, NIAID, NIH. Cultures of parasites (~90% ring stage) were treated with compounds for 120 h, with daily renewal. Samples of parasites were taken at 0, 24, 48, 72, 96 and 120 h. Compounds were washed out and four independent 3-fold serial dilutions were established in 96-well plates, with fresh RBCs and culture medium. After 18 days, and again at 22 days, samples were taken to examine growth using SYBR Green I in an EnVision Multilabel Plate Reader (Perkin Elmer) and analysed using Excel and Grafit 5.0 software. The human biological samples were sourced ethically, and their research use was in accord with the terms of the informed consents under an IRB/EC approved protocol.

[7] = molecular target: the molecule itself; experiment: crystal structure; PfTyrRS (10 mg/mL) with 500 uM synthetic Tyr-ML471; sitting drop vapour diffusion at 20°C, 2.25 M sodium malonate pH 6; refined at 1.8 Å
[8] = read-out: Early stage gametocytes IC50
[9] = read-out: Mature stage gametocytes IC50

CC(=O)c1nn([C@@H]2O[C@H](COS(N)(=O)=O)[C@@H](O)[C@H]2O)c2ncnc(N)c12 [ML111] showed an IC50 [1] of 4.3 ± 0.7 nM, an IC50 (HepG2 cells) greater than 50000 nM and an IC50 (PfTyrRS [2]) of 34000 ± 14000 nM. For the same molecule, the ΔTm at 50 µM (PfTyrRS [3]) was 15.1 ± 0.2 °C, the Kd (PfTyrRS [3]) was 0.7 nM and the “PfTyrRS Tm” value (PfTyrRS [3]) was 65.0 ± 0.5 °C.

Work on Nc1ncnc2c1c(C1CC1)nn2[C@@H]1O[C@H](COS(N)(=O)=O)[C@@H](O)[C@H]1O [ML864] yielded an IC50 [1] of 2.5 ± 0.6 nM, an IC50 (HepG2 cells) of 21300 nM and an IC50 (PfTyrRS [2]) of 8500 ± 4500 nM. For the same molecule, the ΔTm at 50 µM (PfTyrRS [3]) was 17 ± 0.1 °C, the Kd (PfTyrRS [3]) was 0.3 nM and the “PfTyrRS Tm” value (PfTyrRS [3]) was 66.9 ± 0.5 °C.

In the case of CS(=O)(=O)c1ccc(-c2cnc(N)c(-c3ccc(C(F)(F)F)nc3)c2)cc1 [MMV390048, reference compound], the IC50 [4, 8] is reported as 138 ± 8 nM, the IC50 [4, 9] is reported as 150 ± 20 nM and the IC50 [5] is reported as 23.3 ± 13.3 nM. It also gave an IC50 (Primary hepatocytes) greater than 100 nM.

CN(C)c1ccc2nc3ccc(=[N+](C)C)cc-3sc2c1 [Methylene blue, reference compound] showed an IC50 [4, 8] of 62 ± 11 nM and an IC50 [4, 9] of 353 ± 63 nM.

With CCc1nc(N)nc(N)c1-c1ccc(Cl)cc1 [Pyrimethamine, reference compound] the Lag phase [6] was 24 h, the “Log PRR” value [6] was 3.7 and the PCT99.9% [6] was 56 h. For the same molecule, the Slope [6] was -0.078.

B1: Plasmodium falciparum cytoplasmic tyrosine tRNA synthetase (enzyme, P. falciparum)
chain: METTDTKREEQEIEEKKAQEESKIEDVDKILNDILSISSECIQPDELRVKLLLKRKLICYDGFEPSGRMHIAQGLLKSIIVNKLTSNGCTFIFWIADWFAHLNNKMSGDLKKIKKVGSYFIEVWKSCGMNMENVQFLWASEEINKKPNEYWSLVLDISRSFNINRMKRCLKIMGRSEGEENYCSQILYPCMQCADIFFLNVDICQLGIDQRKVNMLAREYCDIKKIKKKPVILSHGMLPGLLEGQEKMSKSDENSAIFMDDSESDVNRKIKKAYCPPNVIENNPIYAYAKSIIFPSYNEFNLVRKEKNGGDKTYYTLQELEHDYVNGFIHPLDLKDNVAMYINKLLQPVRDHFQNNIEAKNLLNEIKKYKVTK
notes: Plasmodium falciparum cytoplasmic tyrosine tRNA synthetase; also called PfTyrRS; His-PfTyrRS; source: E. coli BL21(DE3), purified (HisTrap HP, TEV cleavage, second HisTrap HP, Superdex 200 gel filtration)
For B1, the “stoichiometry N” value [7] was 2.
